According to the NIST ThermoML archive (doi:10.1016/j.jct.2013.01.032):

Columns and labels:
[1] = mn = molality of the nth substance listed, in mol/kg; conditions: 101 kPa, Liquid; for speed of sound: Sing-around technique in a fixed-path interferometer; for mass density: Vibrating tube method
[2] = osmotic coefficient (dimensionless); mn = molality of the nth substance listed, in mol/kg; conditions: 323.15 K, Liquid, Knauer Osmometer

CCCCn1cc[n+](C)c1.O=S(=O)([O-])C(F)(F)F [1-butyl-3-methylimidazolium trifluoromethanesulfonate] + CC(C)O
[1]
Conditions | mass density, 293.15 K [kg/m3] | mass density, 308.15 K [kg/m3] | mass density, 323.15 K [kg/m3] | speed of sound, 293.15 K [m/s] | speed of sound, 308.15 K [m/s] | speed of sound, 323.15 K [m/s]
m1 = 0.049 | 789.81 | 777.07 | 763.51 | 1158.3 | 1106.4 | 1053.4
m1 = 0.1 | 794.52 | 781.8 | 768.29 | 1159.5 | 1108 | 1055.5
m1 = 0.152 | 799.18 | 786.48 | 772.99 | 1160.9 | 1109.6 | 1057.4
m1 = 0.207 | 804.09 | 791.39 | 777.93 | 1162.6 | 1111.2 | 1059.3
m1 = 0.254 | 808.1 | 795.41 | 781.98 | 1163.3 | 1112.5 | 1060.8
m1 = 0.51 | 828.98 | 816.33 | 803.01 | 1168.6 | 1119.1 | 1068.8
m1 = 0.754 | 847.24 | 834.61 | 821.37 | 1173.2 | 1124.8 | 1075.6
m1 = 1.006 | 864.73 | 852.1 | 838.92 | 1178.4 | 1130.5 | 1082.3
m1 = 1.525 | 896.77 | 884.17 | 871.1 | 1188.1 | 1142 | 1095.6
m1 = 1.758 | 910.13 | 897.53 | 884.5 | 1192.5 | 1147 | 1101.3
m1 = 2.05 | 925.34 | 912.77 | 899.8 | 1197.6 | 1153.1 | 1108.2
m1 = 2.526 | 947.75 | 935.19 | 922.28 | 1206 | 1162.5 | 1118.6
m1 = 3.011 | 967.97 | 955.42 | 942.57 | 1214.3 | 1171.5 | 1128.5

[2]
Conditions | osmotic coefficient
m1 = 0.0255 | 0.991
m1 = 0.0473 | 0.911
m1 = 0.1132 | 0.844
m1 = 0.1803 | 0.765
m1 = 0.2949 | 0.686
m1 = 0.398 | 0.624
m1 = 0.5052 | 0.588
m1 = 0.8092 | 0.518
m1 = 1.205 | 0.461
m1 = 1.615 | 0.412
m1 = 2.031 | 0.391
m1 = 2.42 | 0.381
m1 = 2.829 | 0.366
m1 = 3.326 | 0.356

CCCCn1cc[n+](C)c1.O=S(=O)([O-])C(F)(F)F [1-butyl-3-methylimidazolium trifluoromethanesulfonate] + CCC(C)O
[1]
Conditions | mass density, 293.15 K [kg/m3] | mass density, 308.15 K [kg/m3] | mass density, 323.15 K [kg/m3] | speed of sound, 293.15 K [m/s] | speed of sound, 308.15 K [m/s] | speed of sound, 323.15 K [m/s]
m1 = 0.098 | 815.49 | 802.94 | 789.53 | 1231 | 1177.6 | 1122.9
m1 = 0.149 | 819.88 | 807.37 | 794.01 | 1231.4 | 1178.3 | 1124.1
m1 = 0.201 | 824.3 | 811.78 | 798.46 | 1231.9 | 1179.2 | 1125.5
m1 = 0.249 | 828.21 | 815.73 | 802.45 | 1232 | 1179.6 | 1126.3
m1 = 0.498 | 847.84 | 835.4 | 822.26 | 1233.7 | 1182.7 | 1130.8
m1 = 1.002 | 882.87 | 870.47 | 857.52 | 1238.2 | 1189.5 | 1140.3
m1 = 1.239 | 897.53 | 885.16 | 872.26 | 1240.2 | 1192.4 | 1144
m1 = 1.522 | 913.81 | 901.44 | 888.61 | 1243.1 | 1196.2 | 1148.8
m1 = 1.763 | 926.62 | 914.26 | 901.49 | 1245.6 | 1199.4 | 1152.7
m1 = 2.497 | 961.11 | 948.77 | 936.11 | 1253.6 | 1209.2 | 1164.3
m1 = 2.935 | 978.86 | 966.54 | 953.94 | 1258.2 | 1214.5 | 1170.8

[2]
Conditions | osmotic coefficient
m1 = 0.0481 | 0.914
m1 = 0.0784 | 0.806
m1 = 0.1008 | 0.771
m1 = 0.2021 | 0.657
m1 = 0.2917 | 0.568
m1 = 0.3846 | 0.507
m1 = 0.485 | 0.472
m1 = 0.7679 | 0.428
m1 = 1.126 | 0.379
m1 = 1.523 | 0.334
m1 = 1.909 | 0.318
m1 = 2.282 | 0.31
m1 = 2.574 | 0.296
m1 = 2.994 | 0.279
m1 = 3.448 | 0.275

CCCCn1cc[n+](C)c1.O=S(=O)([O-])C(F)(F)F [1-butyl-3-methylimidazolium trifluoromethanesulfonate] + CCCCCO
[1]
Conditions | mass density, 293.15 K [kg/m3] | mass density, 308.15 K [kg/m3] | mass density, 323.15 K [kg/m3] | speed of sound, 293.15 K [m/s] | speed of sound, 308.15 K [m/s] | speed of sound, 323.15 K [m/s]
m1 = 0.048 | 818.89 | 807.86 | 796.5 | 1292.6 | 1242.7 | 1193.2
m1 = 0.103 | 823.68 | 812.65 | 801.3 | 1292.3 | 1242.7 | 1193.6
m1 = 0.203 | 832.08 | 821.04 | 809.68 | 1291.9 | 1242.7 | 1194.1
m1 = 0.246 | 835.58 | 824.54 | 813.18 | 1291.4 | 1242.6 | 1194.1
m1 = 0.746 | 872.74 | 861.58 | 850.17 | 1289 | 1242 | 1195.6
m1 = 1.014 | 890.36 | 879.13 | 867.69 | 1288.5 | 1242.2 | 1196.7
m1 = 1.517 | 919.71 | 908.4 | 896.89 | 1288.2 | 1243.4 | 1199.3
m1 = 1.778 | 933.35 | 921.98 | 910.45 | 1288.6 | 1244.5 | 1201
m1 = 2.024 | 945.34 | 933.93 | 922.38 | 1289.4 | 1245.7 | 1202.7
m1 = 2.477 | 965.54 | 954.08 | 942.49 | 1290.7 | 1248.1 | 1205.9
m1 = 2.963 | 984.77 | 973.25 | 961.63 | 1292.8 | 1250.8 | 1209.4

[2]
Conditions | osmotic coefficient
m1 = 0.0505 | 0.619
m1 = 0.0795 | 0.565
m1 = 0.1004 | 0.529
m1 = 0.2014 | 0.436
m1 = 0.3014 | 0.402
m1 = 0.406 | 0.365
m1 = 0.5071 | 0.344
m1 = 0.8272 | 0.299
m1 = 1.233 | 0.242
m1 = 1.649 | 0.224
m1 = 2.044 | 0.202
m1 = 2.446 | 0.183
m1 = 2.837 | 0.184
m1 = 3.34 | 0.184

CCCCn1cc[n+](C)c1.O=S(=O)([O-])C(F)(F)F [1-butyl-3-methylimidazolium trifluoromethanesulfonate] + CCCCO
[1]
Conditions | mass density, 293.15 K [kg/m3] | mass density, 308.15 K [kg/m3] | mass density, 323.15 K [kg/m3] | speed of sound, 293.15 K [m/s] | speed of sound, 308.15 K [m/s] | speed of sound, 323.15 K [m/s]
m1 = 0.052 | 814.31 | 802.84 | 790.99 | 1257.8 | 1207.6 | 1158.1
m1 = 0.101 | 818.63 | 807.15 | 795.31 | 1258 | 1208 | 1158.8
m1 = 0.153 | 823.08 | 811.61 | 799.78 | 1257.7 | 1208.3 | 1159.4
m1 = 0.206 | 827.53 | 816.05 | 804.22 | 1257.9 | 1208.8 | 1160.1
m1 = 0.25 | 831.16 | 819.67 | 807.85 | 1258 | 1209.1 | 1160.6
m1 = 0.504 | 851.11 | 839.58 | 827.75 | 1258 | 1210.5 | 1163.2
m1 = 0.756 | 869.28 | 857.7 | 845.85 | 1259.2 | 1212.1 | 1165.7
m1 = 1.009 | 886.03 | 874.41 | 862.55 | 1260.2 | 1213.9 | 1168.4
m1 = 1.262 | 901.54 | 889.89 | 878.01 | 1261 | 1215.8 | 1171
m1 = 1.508 | 915.57 | 903.89 | 892 | 1262.4 | 1217.9 | 1173.7
m1 = 1.758 | 928.83 | 917.11 | 905.21 | 1263.9 | 1219.9 | 1176.4
m1 = 1.989 | 940.32 | 928.56 | 916.64 | 1265.8 | 1222 | 1179
m1 = 2.486 | 962.85 | 951.04 | 939.1 | 1269.5 | 1226.6 | 1184.5
m1 = 2.979 | 982.55 | 970.73 | 958.77 | 1273.1 | 1231.2 | 1189.8

[2]
Conditions | osmotic coefficient
m1 = 0.0481 | 0.84
m1 = 0.1053 | 0.618
m1 = 0.2108 | 0.512
m1 = 0.3131 | 0.457
m1 = 0.4049 | 0.425
m1 = 0.4947 | 0.403
m1 = 0.8149 | 0.36
m1 = 1.216 | 0.323
m1 = 1.613 | 0.301
m1 = 2.036 | 0.28
m1 = 2.425 | 0.268
m1 = 2.82 | 0.27
m1 = 3.311 | 0.259

CCCCn1cc[n+](C)c1.O=S(=O)([O-])C(F)(F)F [1-butyl-3-methylimidazolium trifluoromethanesulfonate] + CCCO
[1]
Conditions | mass density, 293.15 K [kg/m3] | mass density, 308.15 K [kg/m3] | mass density, 323.15 K [kg/m3] | speed of sound, 293.15 K [m/s] | speed of sound, 308.15 K [m/s] | speed of sound, 323.15 K [m/s]
m1 = 0.05 | 808.59 | 796.51 | 784.03 | 1225.2 | 1174.1 | 1123.8
m1 = 0.101 | 813.12 | 801.04 | 788.57 | 1225.9 | 1175.1 | 1125.1
m1 = 0.15 | 817.38 | 805.31 | 792.86 | 1226.2 | 1176 | 1126.3
m1 = 0.2 | 821.64 | 809.57 | 797.12 | 1226.7 | 1176.8 | 1127.3
m1 = 0.25 | 825.82 | 813.75 | 801.31 | 1227.4 | 1177.6 | 1128.4
m1 = 0.758 | 864.71 | 852.6 | 840.18 | 1232.4 | 1184.8 | 1137.7
m1 = 1.004 | 881.36 | 869.23 | 856.81 | 1235 | 1188.2 | 1141.9
m1 = 1.258 | 897.18 | 885.04 | 872.62 | 1237.6 | 1191.7 | 1146.2
m1 = 1.524 | 912.6 | 900.41 | 887.99 | 1241.2 | 1195.4 | 1150.5
m1 = 1.771 | 925.96 | 913.75 | 901.33 | 1243.6 | 1198.7 | 1154.5
m1 = 2.021 | 938.44 | 926.22 | 913.81 | 1246.4 | 1202 | 1158.4
m1 = 2.517 | 960.93 | 948.73 | 936.31 | 1251.9 | 1208.4 | 1165.7
m1 = 3.011 | 981.02 | 968.77 | 956.37 | 1257.1 | 1214.8 | 1172.9

[2]
Conditions | osmotic coefficient
m1 = 0.0299 | 0.906
m1 = 0.0473 | 0.817
m1 = 0.0849 | 0.775
m1 = 0.0975 | 0.755
m1 = 0.2019 | 0.66
m1 = 0.2968 | 0.612
m1 = 0.4022 | 0.575
m1 = 0.5062 | 0.549
m1 = 0.8045 | 0.494
m1 = 1.206 | 0.445
m1 = 1.64 | 0.412
m1 = 2.044 | 0.39
m1 = 2.44 | 0.378
m1 = 2.829 | 0.361
m1 = 3.316 | 0.34
